Experimental data from ChEMBL document CHEMBL1240295, “Specificity and mechanism of action of some commonly used protein kinase inhibitors” (Biochem J, 2000).

Experiments:
Oryctolagus cuniculus [1] = organism: Oryctolagus cuniculus; assay: Inhibition of MAPKAPK1b from rabbit skeletal muscle at 1 uM; type: tissue-based; settings: Muscle tissue, values are per cent of control
[2] = molecular target: Mitogen-activated protein kinase 1 (Homo sapiens) (UniProt P28482); assay: Inhibition of His-tagged human MAPK2/ERK2 expressed in Escherichia coli at 1 uM; values are per cent of control
[3] = molecular target: T1, Serine/threonine-protein kinase Sgk1 (Homo sapiens) (UniProt O00141); assay: Inhibition of His-tagged human SGK expressed in Sf9 cells at 1 uM; settings: values are per cent of control
T1 sequence (whole entry): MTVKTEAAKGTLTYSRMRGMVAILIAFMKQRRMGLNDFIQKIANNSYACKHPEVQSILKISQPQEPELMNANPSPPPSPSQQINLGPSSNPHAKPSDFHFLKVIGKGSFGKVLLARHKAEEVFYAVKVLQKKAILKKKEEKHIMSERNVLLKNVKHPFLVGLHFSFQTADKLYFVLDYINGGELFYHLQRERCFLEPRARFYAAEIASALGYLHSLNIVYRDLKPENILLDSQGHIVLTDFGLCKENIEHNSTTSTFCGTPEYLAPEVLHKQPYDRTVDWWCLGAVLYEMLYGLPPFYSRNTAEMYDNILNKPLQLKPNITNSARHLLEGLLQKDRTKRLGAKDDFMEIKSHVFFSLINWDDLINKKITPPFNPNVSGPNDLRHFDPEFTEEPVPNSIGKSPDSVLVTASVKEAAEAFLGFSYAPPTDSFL

[4] = molecular target: Rho-associated protein kinase 2 (Rattus norvegicus) (UniProt Q62868); assay: Inhibition of rat ROCK2 expressed in Sf9 cells at 1 uM; settings: values are per cent of control
Rattus norvegicus = organism: Rattus norvegicus; assay: Inhibition of rat liver AMPK at 1 uM; settings: values are per cent of control
[5] = molecular target: T2, Mitogen-activated protein kinase 12 (Homo sapiens) (UniProt P53778); assay: Inhibition of His-tagged human SAPK3/p38gamma expressed in Escherichia coli at 1 uM; values are per cent of control
T2 sequence (whole entry): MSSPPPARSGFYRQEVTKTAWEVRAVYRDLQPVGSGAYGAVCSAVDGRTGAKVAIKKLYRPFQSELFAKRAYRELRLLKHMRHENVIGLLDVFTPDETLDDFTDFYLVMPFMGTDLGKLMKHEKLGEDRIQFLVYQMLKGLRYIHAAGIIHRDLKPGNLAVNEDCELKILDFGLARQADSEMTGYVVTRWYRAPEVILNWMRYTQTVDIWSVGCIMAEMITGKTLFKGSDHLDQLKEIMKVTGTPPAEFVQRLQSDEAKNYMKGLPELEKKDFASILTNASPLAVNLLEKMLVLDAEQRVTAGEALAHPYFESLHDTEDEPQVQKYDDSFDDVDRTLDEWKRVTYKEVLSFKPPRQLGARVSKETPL

[6] = molecular target: T3, Serine/threonine-protein kinase Chk1 (Homo sapiens) (UniProt O14757); assay: Inhibition of His-tagged human CHK1 expressed in Escherichia coli at 1 uM; values are per cent of control
T3 sequence (whole entry): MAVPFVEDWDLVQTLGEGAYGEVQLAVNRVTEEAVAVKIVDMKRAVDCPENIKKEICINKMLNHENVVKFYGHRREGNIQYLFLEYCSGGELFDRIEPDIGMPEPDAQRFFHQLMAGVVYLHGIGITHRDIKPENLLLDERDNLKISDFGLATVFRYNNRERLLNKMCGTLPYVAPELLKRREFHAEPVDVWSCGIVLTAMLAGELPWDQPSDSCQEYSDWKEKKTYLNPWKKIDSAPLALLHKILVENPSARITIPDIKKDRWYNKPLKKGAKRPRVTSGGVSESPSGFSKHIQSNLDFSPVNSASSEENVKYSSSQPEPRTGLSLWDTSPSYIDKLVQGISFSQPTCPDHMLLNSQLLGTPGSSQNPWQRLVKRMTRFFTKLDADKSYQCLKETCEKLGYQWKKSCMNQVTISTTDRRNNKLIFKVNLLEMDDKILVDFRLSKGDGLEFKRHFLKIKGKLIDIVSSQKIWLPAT

[7] = molecular target: 3-phosphoinositide-dependent protein kinase 1 (Homo sapiens) (UniProt O15530); assay: Inhibition of His-tagged human PDK1 expressed in Sf21 cells at 1 uM; settings: values are per cent of control
[8] = molecular target: Mitogen-activated protein kinase 14 (Homo sapiens) (UniProt Q16539); assay: Inhibition of His-tagged human SAPK2a/p38 expressed in Escherichia coli at 1 uM; values are per cent of control
[9] = molecular target: RAC-alpha serine/threonine-protein kinase (Homo sapiens) (UniProt P31749); assay: Inhibition of human PKBalpha expressed in SF9 cells at 1 uM; settings: values are per cent of control
Oryctolagus cuniculus [10] = organism: Oryctolagus cuniculus; assay: Inhibition of rabbit MKK1 expressed in Escherichia coli at 1 uM; settings: values are per cent of control
Oryctolagus cuniculus [11] = organism: Oryctolagus cuniculus; assay: Inhibition of PHK from rabbit skeletal muscle at 1 uM; type: tissue-based; settings: Muscle tissue, values are per cent of control
[12] = molecular target: Ribosomal protein S6 kinase beta-1 (Homo sapiens, UniProt P23443); assay: Inhibition of His-tagged human S6K1 expressed in Escherichia coli at 1 uM; values are per cent of control
[13] = molecular target: Protein kinase C alpha type (Homo sapiens, UniProt P17252); assay: Inhibition of His-tagged human PKCalpha expressed in Escherichia coli at 1 uM; settings: values are per cent of control
[14] = molecular target: Ribosomal protein S6 kinase alpha-5 (Homo sapiens, UniProt O75582); assay: Inhibition of His-tagged human MSK1 expressed in Sf9 cells at 1 uM; values are per cent of control
[15] = molecular target: T4, MAP kinase-activated protein kinase 5 (Homo sapiens) (UniProt Q8IW41); assay: Inhibition of His-tagged human PRAK expressed in Sf9 cells at 1 uM; values are per cent of control
T4 sequence (whole entry): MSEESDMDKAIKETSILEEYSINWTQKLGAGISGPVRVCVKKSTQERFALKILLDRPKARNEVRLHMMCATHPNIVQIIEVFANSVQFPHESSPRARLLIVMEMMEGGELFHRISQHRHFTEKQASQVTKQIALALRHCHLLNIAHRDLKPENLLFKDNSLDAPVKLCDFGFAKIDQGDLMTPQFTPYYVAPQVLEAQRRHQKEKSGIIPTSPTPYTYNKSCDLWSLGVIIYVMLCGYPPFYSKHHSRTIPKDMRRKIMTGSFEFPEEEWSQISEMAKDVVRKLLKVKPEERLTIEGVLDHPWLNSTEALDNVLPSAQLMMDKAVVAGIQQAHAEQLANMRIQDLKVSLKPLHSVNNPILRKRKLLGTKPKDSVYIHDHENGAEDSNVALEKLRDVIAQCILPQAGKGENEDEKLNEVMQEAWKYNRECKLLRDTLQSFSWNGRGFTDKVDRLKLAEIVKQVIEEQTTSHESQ

[16] = molecular target: Casein kinase II (Homo sapiens) (UniProt P67870+P68400+P19784); assay: Inhibition of His-tagged human CK2 expressed in Sf9 cells at 1 uM; settings: values are per cent of control
Bos taurus = organism: Bos taurus; assay: Inhibition of bovine heart PKA at 1 uM; settings: values are per cent of control

Chain of Mitogen-activated protein kinase 1 (Homo sapiens) (P28482 whole entry): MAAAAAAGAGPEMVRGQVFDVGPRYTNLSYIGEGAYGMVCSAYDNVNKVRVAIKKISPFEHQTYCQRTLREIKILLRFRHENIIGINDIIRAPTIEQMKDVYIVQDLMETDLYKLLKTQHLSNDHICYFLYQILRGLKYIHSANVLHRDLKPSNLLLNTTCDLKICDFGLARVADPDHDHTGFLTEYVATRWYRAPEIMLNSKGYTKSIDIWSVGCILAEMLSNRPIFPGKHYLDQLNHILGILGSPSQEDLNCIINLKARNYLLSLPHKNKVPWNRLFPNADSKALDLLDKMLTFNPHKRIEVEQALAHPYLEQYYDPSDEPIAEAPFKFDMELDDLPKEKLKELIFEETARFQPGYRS
Chain of 3-phosphoinositide-dependent protein kinase 1 (Homo sapiens) (O15530 whole entry, looked up): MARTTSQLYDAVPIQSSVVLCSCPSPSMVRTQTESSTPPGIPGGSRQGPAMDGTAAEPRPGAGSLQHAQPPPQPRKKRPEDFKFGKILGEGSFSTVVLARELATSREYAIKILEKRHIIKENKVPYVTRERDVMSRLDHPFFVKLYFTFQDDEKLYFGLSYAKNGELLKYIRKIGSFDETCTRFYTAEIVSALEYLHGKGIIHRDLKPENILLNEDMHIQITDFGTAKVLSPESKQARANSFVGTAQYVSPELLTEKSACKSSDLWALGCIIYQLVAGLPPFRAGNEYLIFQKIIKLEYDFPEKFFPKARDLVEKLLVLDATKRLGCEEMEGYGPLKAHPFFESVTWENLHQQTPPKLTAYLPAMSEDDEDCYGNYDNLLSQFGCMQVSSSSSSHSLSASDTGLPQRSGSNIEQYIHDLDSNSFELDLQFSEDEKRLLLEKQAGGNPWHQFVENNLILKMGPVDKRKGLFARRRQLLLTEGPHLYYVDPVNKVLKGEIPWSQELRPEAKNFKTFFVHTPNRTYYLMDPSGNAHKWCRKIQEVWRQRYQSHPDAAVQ
Chain of Rho-associated protein kinase 2 (Rattus norvegicus) (Q62868 whole entry, looked up): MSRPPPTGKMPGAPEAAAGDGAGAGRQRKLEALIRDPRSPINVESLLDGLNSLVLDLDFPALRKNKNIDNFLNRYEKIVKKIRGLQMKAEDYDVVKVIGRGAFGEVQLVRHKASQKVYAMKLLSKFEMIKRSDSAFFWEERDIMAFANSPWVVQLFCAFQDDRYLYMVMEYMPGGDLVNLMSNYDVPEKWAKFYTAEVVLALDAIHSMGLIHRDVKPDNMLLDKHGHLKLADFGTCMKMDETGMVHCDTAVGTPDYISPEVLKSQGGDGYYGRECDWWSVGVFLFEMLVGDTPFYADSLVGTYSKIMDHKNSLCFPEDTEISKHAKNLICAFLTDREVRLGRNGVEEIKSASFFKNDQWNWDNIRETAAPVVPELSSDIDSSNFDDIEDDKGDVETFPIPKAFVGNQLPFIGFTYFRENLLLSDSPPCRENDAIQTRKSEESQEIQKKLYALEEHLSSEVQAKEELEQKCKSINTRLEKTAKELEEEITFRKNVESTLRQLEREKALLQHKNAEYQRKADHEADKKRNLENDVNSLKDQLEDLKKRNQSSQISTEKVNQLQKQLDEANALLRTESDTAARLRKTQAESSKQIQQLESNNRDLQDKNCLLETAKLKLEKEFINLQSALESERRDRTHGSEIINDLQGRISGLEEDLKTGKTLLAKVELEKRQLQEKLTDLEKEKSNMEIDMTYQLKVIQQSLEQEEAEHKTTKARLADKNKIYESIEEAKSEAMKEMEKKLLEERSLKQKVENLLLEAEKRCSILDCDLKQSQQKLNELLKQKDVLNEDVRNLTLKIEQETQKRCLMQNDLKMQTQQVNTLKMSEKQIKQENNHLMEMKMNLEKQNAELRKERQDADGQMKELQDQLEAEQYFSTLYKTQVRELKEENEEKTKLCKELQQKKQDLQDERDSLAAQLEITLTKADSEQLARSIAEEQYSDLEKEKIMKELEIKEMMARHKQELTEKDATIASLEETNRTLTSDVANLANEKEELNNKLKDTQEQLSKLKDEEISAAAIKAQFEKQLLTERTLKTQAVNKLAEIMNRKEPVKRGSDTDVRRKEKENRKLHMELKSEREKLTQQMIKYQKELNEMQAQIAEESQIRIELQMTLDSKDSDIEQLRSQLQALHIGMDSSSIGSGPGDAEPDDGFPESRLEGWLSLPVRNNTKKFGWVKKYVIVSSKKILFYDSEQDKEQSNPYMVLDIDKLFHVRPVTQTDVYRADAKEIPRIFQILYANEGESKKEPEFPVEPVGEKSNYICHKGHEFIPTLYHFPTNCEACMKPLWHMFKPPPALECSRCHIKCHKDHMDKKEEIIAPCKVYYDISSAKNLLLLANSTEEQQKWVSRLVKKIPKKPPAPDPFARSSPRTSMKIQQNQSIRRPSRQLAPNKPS
Chain of RAC-alpha serine/threonine-protein kinase (Homo sapiens) (P31749 whole entry): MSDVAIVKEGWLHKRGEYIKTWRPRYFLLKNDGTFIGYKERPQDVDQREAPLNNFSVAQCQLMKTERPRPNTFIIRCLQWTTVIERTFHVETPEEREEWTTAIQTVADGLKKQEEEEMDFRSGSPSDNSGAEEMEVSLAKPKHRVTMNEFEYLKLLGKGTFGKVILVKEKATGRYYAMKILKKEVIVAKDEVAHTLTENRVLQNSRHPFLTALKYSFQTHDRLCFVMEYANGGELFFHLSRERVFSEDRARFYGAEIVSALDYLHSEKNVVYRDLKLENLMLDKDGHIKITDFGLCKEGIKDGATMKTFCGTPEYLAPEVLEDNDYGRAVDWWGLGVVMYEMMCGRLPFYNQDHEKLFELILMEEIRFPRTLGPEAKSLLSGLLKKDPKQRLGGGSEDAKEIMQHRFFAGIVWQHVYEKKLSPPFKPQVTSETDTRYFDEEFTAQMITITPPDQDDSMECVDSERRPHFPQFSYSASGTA
Chain of Ribosomal protein S6 kinase alpha-5 (O75582 whole entry, looked up): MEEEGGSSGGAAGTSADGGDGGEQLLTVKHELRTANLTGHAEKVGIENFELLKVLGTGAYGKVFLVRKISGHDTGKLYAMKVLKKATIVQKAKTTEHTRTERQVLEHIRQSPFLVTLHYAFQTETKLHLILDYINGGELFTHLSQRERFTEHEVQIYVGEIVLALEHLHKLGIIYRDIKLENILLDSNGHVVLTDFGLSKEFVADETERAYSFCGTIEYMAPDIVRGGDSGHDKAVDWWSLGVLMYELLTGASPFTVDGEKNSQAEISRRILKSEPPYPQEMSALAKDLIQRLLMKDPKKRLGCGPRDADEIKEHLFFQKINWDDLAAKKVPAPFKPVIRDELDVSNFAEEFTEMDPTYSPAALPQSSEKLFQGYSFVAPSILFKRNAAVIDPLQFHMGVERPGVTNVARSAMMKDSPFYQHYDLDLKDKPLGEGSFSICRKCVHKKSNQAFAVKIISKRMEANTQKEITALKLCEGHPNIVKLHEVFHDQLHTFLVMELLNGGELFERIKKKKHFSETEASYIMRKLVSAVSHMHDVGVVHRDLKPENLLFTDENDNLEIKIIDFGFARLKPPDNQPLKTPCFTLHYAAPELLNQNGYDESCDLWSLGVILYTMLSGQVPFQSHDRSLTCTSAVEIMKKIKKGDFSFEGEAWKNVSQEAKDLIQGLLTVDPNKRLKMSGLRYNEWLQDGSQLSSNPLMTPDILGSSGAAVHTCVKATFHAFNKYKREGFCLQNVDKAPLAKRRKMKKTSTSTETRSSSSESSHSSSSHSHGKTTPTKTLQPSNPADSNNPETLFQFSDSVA
Chain of Mitogen-activated protein kinase 14 (Homo sapiens) (Q16539 whole entry): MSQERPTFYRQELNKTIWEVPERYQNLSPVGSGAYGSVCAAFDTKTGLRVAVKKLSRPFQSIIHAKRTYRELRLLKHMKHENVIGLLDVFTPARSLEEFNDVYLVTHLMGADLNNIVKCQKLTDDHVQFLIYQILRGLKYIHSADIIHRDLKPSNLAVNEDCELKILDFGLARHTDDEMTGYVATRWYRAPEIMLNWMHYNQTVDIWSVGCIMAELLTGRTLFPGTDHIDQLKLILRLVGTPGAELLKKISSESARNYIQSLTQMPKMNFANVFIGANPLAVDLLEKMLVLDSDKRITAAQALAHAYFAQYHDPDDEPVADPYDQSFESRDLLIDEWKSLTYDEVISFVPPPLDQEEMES

Structure (SMILES) | residual activity (Oryctolagus cuniculus [1]) [%] | residual activity [2] [%] | residual activity [3] [%] | residual activity [4] [%] | residual activity (Rattus norvegicus) [%] | residual activity [5] [%] | residual activity [6] [%] | residual activity [7] [%] | residual activity [8] [%] | residual activity [9] [%] | residual activity (Oryctolagus cuniculus [10]) [%] | residual activity (Oryctolagus cuniculus [11]) [%] | residual activity [12] [%] | residual activity [13] [%] | residual activity [14] [%] | residual activity [15] [%] | residual activity [16] [%] | residual activity (Bos taurus) [%]
CN1C(=O)C(c2c[nH]c3ccccc23)=C(c2c[nH]c3ccccc23)C1=O | 92 | 101 | 96 | 107 | 102 | 99 | 104 | 109 | 101 | 91 | 99 | 100 | 110 | 104 | 103 | 85 | 98 | 95
COC[C@H]1OC(=O)c2coc3c2[C@@]1(C)C1=C(C3=O)[C@@H]2CCC(=O)[C@@]2(C)C[C@H]1OC(C)=O [WORTMANNIN] | 92 | 90 | 101 | 91 | 106 | 75 | 99 | 88 | 86 | 96 | 96 | 100 | 106 | 100 | 99 | 85 | 98 | 97
NCCCn1cc(C2=C(c3c[nH]c4ccccc34)C(=O)NC2=O)c2ccccc21 | 2 | 107 | 26 | 89 | 23 | 116 | 40 | 69 | 104 | 99 | 90 | 20 | 18 | 7 | 9 | 89 | 106 | 87
Cn1cc(C2=C(c3cn(CCCSC(=N)N)c4ccccc34)C(=O)NC2=O)c2ccccc21 [BISINDOLYLMALEIMIDE IX] | 2 | 97 | 21 | 92 | 42 | 92 | 42 | 84 | 84 | 73 | 94 | 57 | 6 | 3 | 2 | 96 | 104 | 70
